# pEC50, pIC50: −log10 of the molar value.
# Tests used:
# Assay type in all cases: cell-based
# [1] = system: replicon RNA (amplicon in NS5B), luciferase replicon cell line; experiment: Taqman assay of replicon RNA level in replicon cells; details: Taqman real-time PCR, 2 days incubation; for pIC50: 48 h, GADPH RNA as endogenous control, read-out: IC50: drug dose necessary to reach a 2-fold decrease in replicon RNA level
# Protocol: (§1) Cell Culture. Cells of the luciferase replicon cell line (Vrolijk et al., J. Virol. Methods 110:201-209 (2003)) was grown in Dulbecco's minimal essential medium (DMEM) supplemented with 2 mM glutamine, non-essential amino acids (NEAA), 10 mM HEPES, 0.075% sodium bicarbonate, 100 U/ml penicillin and 100 μg/mL streptomycin, and 10% fetal bovine serum. To maintain the selection for replicon, 0.3 mg/mL of G418 were added to the culture media.
# Taqman Assay Method. Replicon cells were seeded at 4000 cells/well in 96-well collagen 1-coated Biocoat Plates (Becton Dickinson). Twenty-four hours post-seeding, compounds were added to replicon cells. The final concentration of DMSO was 0.5%, fetal bovine serum was 10%, and no G418 was added. Cells were incubated with compounds for 2 days, at which point the cells were washed with PBS and lysed in 1× cell lysis buffer (Ambion). The replicon RNA level was measured using real time PCR (Taqman assay). The amplicon was located in NS5B. The PCR primers were 5B.2F, ATGGACAGGCGCCCTGA; 5B.2R, […]; the probe sequence was FAM-labeled CACGCCATGCGCTGCGG. GADPH RNA was used as an endogenous control and was amplified in the same reaction as NS5B (multiplex PCR) using primers and VIC-labeled probe recommended by the manufacturer (PE Applied Biosystem). The real-time RT-PCR reactions were run on the ABI PRISM 7900HT Sequence Detection System using the following program: 48° C. for 30 minutes, 95° C. for 10 minutes, 40 cycles of 95° C. for 15 seconds, 60° C. for 1 minute. The ACT values (CT5B-CTGADPH) were plotted against drug concentration and fitted to the sigmoid dose response model using SAS system (SAS Institute, Inc.) or PRISM software (Graphpad Software, Inc.). IC50 was the drug dose response necessary to achieve an increase of 1 in ΔCT over the projected baseline. IC90 was the drug dose response necessary to achieve an increase of 3.2 over the baseline. All Taqman reagents were from PE Applied Biosystem.
# (§2) IC50: drug dose necessary to reach a 2-fold decrease in replicon RNA level. IC90: drug dose necessary to reach a 10-fold decrease in replicon RNA level EC50: drug dose necessary to reach a 2-fold decrease in luciferase signal. EC90: drug dose necessary to reach a 10-fold reduction in luciferase signal. CC50: drug dose necessary to reduce the MTS signal to 50% of that of no drug control TI: CC50/EC50 in 5-2 cells. All units are μM.
# [2] = Cell toxicity assay (MTS) on replicon cells; details: human; MTS assay on replicon cells; read-out: CC50: drug dose necessary to reduce the MTS signal to 50% of that of no drug control
# Protocol: (§3) Cell toxicity assay. The toxicity of compounds on the replicon cells were measured by MTS assay following manufacturer's instructions (Promega). Briefly, 20 μl of CellTiter 96®RAQueous One Solution Reagent were added to each well of the 96-well plate containing 100 μl of culture medium. The plates were incubated for 30-60 minutes before reading OD by DYNEX MRX.
# as §2
# replicon cells = experiment: Cell toxicity assay (MTS) on replicon cells; details: for TI: CC50/EC50 in 5-2 cells: ratio CC50/EC50, 5-2 cells; for CC50: MTS assay on replicon cells, read-out: CC50: drug dose necessary to reduce the MTS signal to 50% of that of no drug control
# Protocol: as §3, §2
# [3] = system: replicon (luciferase signal), luciferase replicon cell line; experiment: Dose-response luciferase assay in replicon cells; details: 2 days incubation, 0.5% DMSO, 10% fetal bovine serum; for pEC50: 48 h, read-out: EC50: drug dose necessary to reach a 2-fold decrease in luciferase signal
# Protocol: as §1
# Dose-Response and Luciferase Assays. Replicon cells were seeded at 5000 cells/well in 96-well collagen 1-coated Biocoat plates (Becton Dickinson; Palo Alto, Calif.). Twenty-four hrs post-seeding, compounds (see Table 1 below) were added to replicon cells. The final concentration of DMSO was 0.5%, fetal bovine serum was 10%, and G418 was not added. The cells were incubated with the compounds for 2 days, at which point the cells were washed with PBS and lysed in 40 μl Glo Lysis Buffer (Promega; Madison, Wis.). 20 μl of lysates were mixed with 100 μl Luciferase Assay Reagent (Promega) and read on a Microtiter Plate Luminometer MLX (DYNEX Technologies; Chantilly, Va.). The fold of reduction in luciferase signal compared to no compound control was plotted against drug concentration and fitted to the sigmoid dose response model using PRISM software (Graphpad Software Inc.; San Diego, Calif.).
# as §2
SMILES,pIC50 [1],IC90: drug dose necessary to reach a 10-fold decrease in replicon RNA level [1],CC50 at 2 days [2] [µM],TI: CC50/EC50 in 5-2 cells (replicon cells),pEC50 [3],EC90: drug dose necessary to reach a 10-fold reduction in luciferase signal [3] [μM],CC50 (replicon cells) [µM]
"O=c1nc(/N=C/N2CCOCC2)ccn1[C@@H]1O[C@H](CO)C(O)C1O (stereo in doubt) [XII, N^4-[Morpholinomethylene]arabinocytidine]",< 5.00,>10 μM,> 10,>500,7.70,1.5,
"CC(C)N(C=Nc1ccn([C@@H]2O[C@H](CO)[C@@H](O)[C@@H]2O)c(=O)n1)C(C)C [X, N^4-[(Diisopropylamino)methylene]arabinocytidine]",,>10 μM,,>300,,2,> 10
"NC(=O)c1ncn([C@@H]2O[C@H](CO)[C@@H](O)[C@H]2O)n1 [Ribavirin, 1-β-D-ribofuranosyl-1H-1,2,4-triazole-3-carboxamide, reference compound]",4.00 to 4.40,not reached,~500,~25,4.70,80,
"O=c1nc(N=CN2CCCC2)ccn1[C@@H]1O[C@H](CO)[C@@H](O)[C@@H]1O [XIII, N^4-[Pyrrolidinomethylene]arabinocytidine]",,>10 μM,,>100,,5,> 10
"O=c1nc(N=CN2CCCCC2)ccn1[C@@H]1O[C@H](CO)[C@@H](O)[C@@H]1O [XI, N^4-[Piperidinomethylene]arabinocytidine]",,>10 μM,,>100,,8,> 10
"Nc1ccn([C@@H]2O[C@H](CO)[C@@H](O)[C@@H]2O)c(=O)n1 [Cytarabine, reference compound]",~5.00,>10 μM,> 10,>200,7.30,4,

# — patent US7816339B2, “Treatments for Flaviviridae virus infection” (priority 2005, dated 2010)
